Experimental data taken from US9642922B2, “Caspase-triggered nano-aggregation probes and methods of use” (The Board of Trustees of the Leland Stanford Junior …, priority 2013, dated 2017).
Numbered stars: 1 amine (or outer) side, 2 acyl side, 3 side chain; on linkers, the order of the positions; unused ones are H or OH. Square brackets hold non-standard residues; d marks the D form. Peptide text beside a SMILES is read from it. * marks the point of attachment. DOTA = O=C(O)CN1CCN(CC(=O)O)CCN(CC(=O)*)CCN(CC(=O)O)CC1; X1 = O=C(C1CSC(c2nc3ccc(N[*:1])cc3s2)=N1)[*:2]; X2 = N#Cc1ccc2cc(OCCCN*)ccc2n1; SEt = CCS*

Assays:
cathepsin B = target: T1, cathepsin B (Homo sapiens, UniProt P07858); assay: HPLC enzyme specificity assay of C-SNAF, cathepsin B; format: biochemical; conditions: 25 μM probe, 0.735 μg/ml enzyme, pH 5.5
T1 construct: Cathepsin B (human liver; 0.27 U; 7.35×10^−4 mg, Calbiochem); purchased Calbiochem; host or cells: human liver (tissue-derived)
Experimental: The specificity of C-SNAF towards other representative cysteine proteases such as caspase-7, caspase-9, cathepsin B, and legumain was examined.
Caspase (human, recombinant from E. coli) assays were performed for caspase-3 (4.9×10^−3 U; 7.35×10^−4 mg, Sigma), −7 (18.3 U; 7.35×10^−4 mg, Calbiochem), and −9 (0.3 U; 7.35×10^−4 mg, Calbiochem). All caspase assays were conducted in caspase buffer with 50 mM HEPES, 100 mM NaCl, 1 mM EDTA, 10 mM TCEP, 10% glycerol, and 0.1% CHAPS at pH 7.4. Cathepsin B (human liver; 0.27 U; 7.35×10^−4 mg, Calbiochem) and Legumain (human, recombinant from mouse myeloma cell line; >250 pmol/min/μg; 7.35×10^−4 mg, R&D Systems) were conducted in reaction buffer with 50 mM sodium acetate, 50 mM NaCl, 0.5 mM EDTA and 10 mM TCEP at pH 5.5. C-SNAF was diluted in the respective enzyme reaction buffer (25 μM, 1 mL) and remained at room temperature for 10 min, to which was then added the respective enzymes. Reactions were performed at 37° C., and monitored by HPLC hourly. The percentage conversion of the reaction was calculated based on the percentage of peak area of C-SNAF-cycl in the HPLC trace at 675 nm UV detection, which indicated the efficacy of enzyme cleavage of C-SNAF.

caspase-3/7 = assay: HPLC analysis of C-SNAF reaction in apoptotic cell lysates; format: biochemical, human; conditions: 5 μM, lysate of STS- and DOX-induced apoptotic HeLa or MDA-MB-231 cells
Experimental: To confirm the formation of the caspase-3/7-triggered intramolecular cyclization product C-SNAF-cycl in apoptotic cells, C-SNAF (5 μM) was incubated with both cell lysates and whole cells, and the products were analyzed by HPLC. […] However, more than 90% of C-SNAF was converted to C-SNAF-cycl in the lysate of STS- and DOX-induced apoptotic HeLa (FIG. 12A) or MDA-MB-231 cells, indicating the efficient intramolecular condensation initiated by caspase-3/7 in a complex cellular environment.
The culture medium was carefully removed and the cells were washed with cold 1×PBS. The cells were trypsinized to form cell pellets, and RIPA (RadioImmuno Precipitation Assay, sigma) buffer was added to cells using 100 μL of buffer per 4×10^6 cells. Then the cells were kept on ice for 0.5 h. The cell lysate was gathered, centrifuged at 14,000×g for 15 min at 4° C. The supernatant of the cell lysate was collected, and the caspase-3/7 activity in the lysate was determined by CASPASE-GLO® 3/7 assay. The cell lysate was diluted with caspase reaction buffer (2×, 1:1 diluted), and incubated with C-SNAF (5 μM) at 37° C. overnight and then injected into an HPLC system (Dionex) for analysis.

subcutaneous HeLa tumors = assay: In vivo MR imaging of doxorubicin-treated HeLa tumors; design: species or system mouse
Experimental: Evaluation of activatable contrast agent probe 15 for MR imaging of caspase-3 activity in vivo was performed in nude mice bearing subcutaneous HeLa tumors. Tumors were implanted and grown for 10-15 days before receiving intratumoral injections of two doses of 0.2 mg doxorubicin separated by 2 days. Probe 15 or 1-ctrl (19) (0.1 mmol kg^−1) was injected intravenously the day before treatment (baseline) and four days post-treatment (treated). Spin-echo T1-weighted multislice MR images at 1 T were recorded before (pre-contrast) and every 4 min after contrast agent administration (post-contrast), and scanning was carried out for 4 h post-contrast for each mouse. Much brighter MR signals (T1 contrast) were observed 40 and 120 min after injection with probe 15 in treated tumors as compared to that in baseline tumors (FIG. 29A), or in treated tumors with 1-ctrl (19) (FIG. 29B).
In vivo MR imaging was performed on an Aspect M2 1T permanent magnet (Aspect Imaging, Shoham, Israel) using a 40 mm Transmit/Receive mouse body coil. During imaging, the animals were anaesthetized with isofluorane and their respiration and body temperature were constantly monitored. Intravenous contrast injection at 0.1 mmol/kg concentration was administered in a 100 μL volume for every imaging session. Multi-slice (312 μm in-plane, 12 slices with 1 mm thickness) T1-weighted spin echo images (TE/TR=8.9/250 ms, matrix 128×128, FOV=40 mm, NEX=6) were acquired, one before contrast injection and then every 4 min up to 4 h after contrast injection. A 1 mM Dotarem reference tube was inserted in the field of view to enable inter-session variability correction during post-processing. Each animal underwent two imaging session; one before DOX treatment (baseline), and one after DOX treatment (treated).
Acquired MR data were transferred as DICOM images to an offline workstation and ImageJ (NIH) was used for post processing and quantitative image analysis. This consisted of manual segmentation of tumor ROI for each slice, slice-wise normalization of mean tumor signal intensity with the 1 mM Dotarem reference standard to account for inter-session variability, followed by combining these normalized, slice-wise values to generate mean volumetric tumor signal intensities (SI) for each time point.
Signal enhancement was calculated at each time point as the difference between the tumor SI at that time point and the tumor SI in the pre-contrast (t=0) dataset. SE(t)=SI(t)−SI(t=0); for each mouse, for every session
This metric was used to quantify the difference in SE between the baseline (before DOX treatment) session and the treated session for each mouse, as a means to tease out the difference between the two contrast agents, probe 1 and 1-cntl (19) over the time course of the imaging session. % D(t)=[SE(t,treated)−SE(t,baseline)]/SE(t,baseline); for each mouse.

legumain = target: T2, legumain (Homo sapiens, UniProt Q99538); assay: T1 measurement of probe 15 with legumain; format: biochemical; conditions: probe 208 μM, protease 50 nM, 1 T
T2 construct: purchased R&D Systems; host or cells: mouse myeloma cell line
Experimental: The enzyme specificity of probe 15 was studied by measuring the T1 value resulting from probe incubation (208 μM) with any of five relevant subcellular proteases (caspase-3, -7, -9, cathepsin B and legumain) in enzyme buffer. […] The reduced T1 value in solution was inhibited by the caspase inhibitor Z-VAD-fmk (50 μM).
Cathepsin B (human liver; 0.27 U; 7.35×10^−4 mg, Calbiochem) and Legumain (human, recombinant from mouse myeloma cell line; >250 pmol/min/μg; 7.35×10^−4 mg, R&D Systems) were conducted in reaction buffer with 50 mM sodium acetate, 50 mM NaCl, 0.5 mM EDTA and 10 mM TCEP at pH 5.5. The C-SNAF was diluted in the respective enzyme reaction buffer (25 μM, 1 mL) and remained at room temperature for 10 min, to which was added respective enzymes.

T2 sequence (Q99538 18-323): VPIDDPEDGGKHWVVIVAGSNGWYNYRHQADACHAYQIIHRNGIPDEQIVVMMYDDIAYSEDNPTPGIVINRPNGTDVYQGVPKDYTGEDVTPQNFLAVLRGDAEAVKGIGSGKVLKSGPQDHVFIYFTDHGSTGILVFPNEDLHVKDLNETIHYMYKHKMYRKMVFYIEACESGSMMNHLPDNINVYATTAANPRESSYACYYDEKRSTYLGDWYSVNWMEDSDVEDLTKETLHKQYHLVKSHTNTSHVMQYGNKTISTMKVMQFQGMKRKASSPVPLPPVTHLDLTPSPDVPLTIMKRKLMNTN

## CCSSC[C@@H](NC(=O)[C@H](CC(=O)O)NC(=O)[C@@H](NC(=O)[C@H](CCC(=O)O)NC(=O)[C@H](CC(=O)O)NC(C)=O)C(C)C)C(=O)N[C@@H](CCCCNC(=O)CCCCCN1C(=CC=CC=CC2=[N+](CC)c3ccc4c(S(=O)(=O)[O-])cc(S(=O)(=O)O)cc4c3C2(C)C)C(C)(C)c2c1ccc1c(S(=O)(=O)O)cc(S(=O)(=O)O)cc21)C(=O)Nc1ccc2nc(C3=N[C@@H](C(=O)NCCCOc4ccc5nc(C#N)ccc5c4)CS3)sc2c1 [C-SNAF]
Cathepsin B
  activation by cathepsin B: neither lysosomal cysteine proteases cathepsin B nor legumain could significantly activate
caspase-3/7
  C-SNAF converted to C-SNAF-cycl in lysate: more than 90%

## CCSSCC(NC(=O)C(CC(=O)O)NC(=O)C(NC(=O)C(CCC(=O)O)NC(=O)C(CC(=O)O)NC(C)=O)C(C)C)C(=O)NC(CCCCNC(=O)CN1CCN(CC(=O)[O-])CCN(CC(=O)[O-])CCN(CC(=O)[O-])CC1)C(=O)Nc1ccc2nc(C3=NC(C(=O)NCCCOc4ccc5nc(C#N)ccc5c4)CS3)sc2c1.[Gd+3] (centres unmarked) [probe 15] (Ac-DEVDC(SEt)K(DOTA)[X1]-X2; configuration not given here)
Subcutaneous HeLa tumors; 0.1 mmol kg^−1 i.v.
  time of maximum SI enhancement in treated tumors after administration: 40 min
Subcutaneous HeLa tumors; 20 min
  % difference in tumor SI enhancement, treated versus baseline: 62%
Subcutaneous HeLa tumors; 120 min
  % difference in tumor SI enhancement, treated versus baseline: 169%
Subcutaneous HeLa tumors; 120 min after injection
  SI enhancement in treated mice higher than with 1-ctrl (19): 77%
Subcutaneous HeLa tumors; mouse, in vivo
  Gd uptake in tumors (ICP-MS): higher Gd level in treated tumors
legumain
  T1 value after incubation with legumain: No reduced T1 value
